Experiment [1] concerns the target full-length human BTK (Homo sapiens (Human), UniProt Q06187). In words: Microfluidic off-chip mobility shift kinase assay against BTK enzyme. The class given is biochemical. The settings on record: 90 min at 27° C. The procedure:
Example 23. Microfluidic Off-Chip Mobility Shift Assay Protocol for Potency Assessment Against BTK Enzyme
The protocol below describes microfluidic, off-chip mobility shift kinase assay to measure inherent potency of compounds against BTK enzyme.
5 uL of enzyme buffer and 7.5 uL of ATP/kinKDR peptide substrate mix were added to Matrix (#115304) 384-well, sterile, polypropylene plates (Thermo Fisher Scientific, Hudson, N.H.) with 125 nL of serially diluted compounds prepared in 100% DMSO, and incubated for 90 min. at 27° C. Following the incubation period, reactions were stopped by adding 60 uL stop buffer consisting of 100 mM HEPES, pH 7.5, 0.015% Brij-35 (30%), 0.277% Coating Reagent #3 (Caliper Life Sciences, Mountain View, Calif.), 5% DMSO. Stopped reactions were monitored at −2 PSI, −3000 V/−700 V in a LabChip 3000 plate reader from Caliper Life Sciences, a PerkinElmer Company (Hopkinton, Mass.), and the activity was measured by off-chip mobility shift assay measuring the charge/mass difference between substrate and product resulting from peptide phosphorilation. IC50 and efficacy were determined by plotting log [Inhibitor] vs. % Activity in GeneData Screener (Basel, Switzerland).

Experiment [2] has as its system anti-IgM-induced expression of CD69 in human peripheral blood mononuclear cells (PBMCs). Briefly: PBMC IC50 assay: anti-IgM-induced CD69 expression on CD19 positive cells. It is filed as cell-based. The settings on record: anti-IgM stimulation, CD69 expression on CD19 positive B cells. The procedure: Btk is critical for mediating the signalling of B cell antigen receptor (BCR) after anti-IgM stimulation. Based on this principle, a functional cell-based assay was established to determine the potency of compounds at inhibiting anti-IgM-induced expression of CD69, a downstream BCR signaling event, in freshly isolated human peripheral blood mononuclear cells (PBMCs). In the assay, a 90 μl PBMC suspension containing 2.5×10^5 cells was pre-treated with 10 μl of test compound at various concentrations for an hour, and then incubated overnight (approximately 16-18 hours) with 5 μl 420 μg/ml affiniPure F(ab′)2 fragment goat anti-human IgM Fc fragment per well (Dianova, Cat. No.: 109-006-129). After the incubation, the cells were washed and immunostained with an APC-labeled mouse anti-human CD69 (BD Biosciences; clone: FN50), a PerCP-Cy5.5 labelled mouse anti-human CD19 (BD Biosciences; clone: SJ25C1) and a FITC-labelled mouse anti-human CD3 (BD Biosciences; clone: HIT3a), and fixed for flow cytometric analysis of CD69 expression on CD19 positive cells (B cells). The percentage of CD69 expressing CD19 positive cells was plotted against the concentrations of test compounds to obtain a concentration response curve, and calculate an IC50 value as a measure of the potency of test compounds in the assay.

Experiment [3] relates to WB. Briefly: WB IC50 (no method described). The class given is cell-based.

SMILES strings stand for the structures.

Results on 22 compounds are retold here after patent US10266528B2, “2-oxo-imidazopyridines as reversible BTK inhibitors and uses thereof” (Merck Patent GmbH, priority 2016, dated 2019).

full-length human BTK, sequence (Q06187 whole entry): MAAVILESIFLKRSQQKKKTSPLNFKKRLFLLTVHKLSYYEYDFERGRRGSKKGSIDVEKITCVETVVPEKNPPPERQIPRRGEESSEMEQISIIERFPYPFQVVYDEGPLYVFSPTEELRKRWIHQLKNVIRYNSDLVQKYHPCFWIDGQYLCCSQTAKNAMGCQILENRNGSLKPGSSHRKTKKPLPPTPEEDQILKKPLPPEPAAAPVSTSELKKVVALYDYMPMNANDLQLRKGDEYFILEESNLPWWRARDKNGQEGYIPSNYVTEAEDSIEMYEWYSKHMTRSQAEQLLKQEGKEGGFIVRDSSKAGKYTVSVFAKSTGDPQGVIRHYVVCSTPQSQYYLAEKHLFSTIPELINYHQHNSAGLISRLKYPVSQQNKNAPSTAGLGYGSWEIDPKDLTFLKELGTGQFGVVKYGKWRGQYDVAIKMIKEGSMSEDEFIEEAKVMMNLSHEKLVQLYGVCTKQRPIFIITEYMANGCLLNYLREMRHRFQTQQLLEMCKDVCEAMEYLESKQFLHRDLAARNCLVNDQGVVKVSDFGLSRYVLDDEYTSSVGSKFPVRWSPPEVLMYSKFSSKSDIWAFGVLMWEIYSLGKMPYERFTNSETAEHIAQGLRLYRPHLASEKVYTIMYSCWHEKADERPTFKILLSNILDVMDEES

As a reminder, the IC50 is the concentration that gives 50% inhibition. For `CC(C)(C)c1nnc(C(=O)NCc2ccc(-c3ccnc4[nH]c(=O)[nH]c34)cc2F)o1` [Compound 7, 5-tert-Butyl-[1,3,4]oxadiazole-2-carboxylic Acid 2-fluoro-4-(2-oxo-2,3-dihydro-1H-imidazo[4,5-b]pyridin-7-yl)-benzylamide], in experiment [1], the IC50 lay within 100 to 1000 nM.
Regarding `CC(C)(C)c1noc(C(=O)NC2CCCCc3cc(-c4ccnc5[nH]c(=O)[nH]c45)ccc32)n1` (centres unmarked) [Compound 12, 3-tert-Butyl-[1,2,4]oxadiazole-5-carboxylic Acid [2-(2-oxo-2,3-dihydro-1H-imidazo[4,5-b]pyridin-7-yl)-6,7,8,9-tetrahydro-5H-benzocyclohepten-5-yl]-amide], the IC50 in experiment [2] (Homo sapiens, PBMC) was under 10 nM; in experiment [1] it was under 10 nM.
Take `CC(C)(C)c1noc(C(=O)NCc2ccc(-c3ccnc4[nH]c(=O)[nH]c34)cc2F)n1` [Compound 2, 3-tert-Butyl-[1,2,4]oxadiazole-5-carboxylic Acid 2-fluoro-4-(2-oxo-2,3-dihydro-1H-imidazo[4,5-b]pyridine-7-yl)-benzylamide]: the IC50 in experiment [2] (Homo sapiens, PBMC) is 100 to 1000 nM; in experiment [3], 100 to 1000 nM; in experiment [1] it was under 10 nM.
As for `CC(C)(C)c1noc(C(=O)NC2CCCCc3cc(-c4ccnc5[nH]c(=O)[nH]c45)ccc32)n1` (centres unmarked) [Compound 11, 3-tert-Butyl-[1,2,4]oxadiazole-5-carboxylic Acid [2-(2-oxo-2,3-dihydro-1H-imidazo[4,5-b]pyridin-7-yl)-6,7,8,9-tetrahydro-5H-benzocyclohepten-5-yl]-amide], the IC50 is 10 to 100 nM in experiment [2] and under 10 nM in experiment [1].
As to `CC(C)(C)c1nc(C(=O)NCc2ccc(-c3ccnc4[nH]c(=O)[nH]c34)cc2C(F)(F)F)no1` [Compound 19, 5-tert-Butyl-[1,2,4]oxadiazole-3-carboxylic Acid 4-(2-oxo-2,3-dihydro-1H-imidazo[4,5-b]pyridin-7-yl)-2-trifluoromethyl-benzylamide], in experiment [1], the IC50 is under 10 nM.
With `Cc1cc(-c2ccnc3[nH]c(=O)[nH]c23)ccc1CNC(=O)c1nc(C(C)(C)C)no1` [Compound 23, 3-tert-Butyl-[1,2,4]oxadiazole-5-carboxylic Acid 2-methyl-4-(2-oxo-2,3-dihydro-1H-imidazo[4,5-b]pyridin-7-yl)-benzylamide], the IC50 in experiment [2] (Homo sapiens, PBMC) was 10 to 100 nM; in experiment [3], 10 to 100 nM; in experiment [1], under 10 nM.
With `CC(C)(C)c1noc(C(=O)NCc2ccc(-c3ccnc4[nH]c(=O)[nH]c34)cc2C2CC2)n1` [Compound 17, 3-tert-Butyl-[1,2,4]oxadiazole-5-carboxylic Acid 2-cyclopropyl-4-(2-oxo-2,3-dihydro-1H-imidazo[4,5-b]pyridin-7-yl)-benzylamide], the IC50 in experiment [2] (Homo sapiens, PBMC) was 100 to 1000 nM; in experiment [1], under 10 nM.
Turning to `CC(C)(O)c1ccc(C(=O)NCc2ccc(-c3ccnc4[nH]c(=O)[nH]c34)cc2F)cc1` [Compound 9, N-[2-Fluoro-4-(2-oxo-2,3-dihydro-1H-imidazo[4,5-b]pyridin-7-yl)-benzyl]-4-(1-hydroxy-1-methyl-ethyl)-benzamide], the IC50 in experiment [1] was over 1000 nM.
Regarding `O=C(NCc1ccc(-c2ccnc3[nH]c(=O)[nH]c23)cc1F)NCC1CC2CCC1C2` (centres unmarked) [Compound 4, 1-Bicyclo[2.2.1]hept-2-ylmethyl-3-[2-fluoro-4-(2-oxo-2,3-dihydro-1H-imidazo[4,5-b]pyridin-7-yl)-benzyl]-urea], the IC50 in experiment [2] (Homo sapiens, PBMC) was over 1000 nM; in experiment [1], 10 to 100 nM.
As for `CC1(c2noc(C(=O)NCc3ccc(-c4ccnc5[nH]c(=O)[nH]c45)cc3C(F)(F)F)n2)CC1` [Compound 18, 3-(1-Methyl-cyclopropyl)-[1,2,4]oxadiazole-5-carboxylic Acid 4-(2-oxo-2,3-dihydro-1H-imidazo[4,5-b]pyridin-7-yl)-2-trifluoromethyl-benzylamide], the IC50 in experiment [2] (Homo sapiens, PBMC) is 10 to 100 nM; in experiment [3] it was 100 to 1000 nM; in experiment [1], under 10 nM.
On to `CC(C)(C)c1ccc(C(=O)NCc2ccc(-c3ccnc4[nH]c(=O)[nH]c34)cc2F)cn1` [Compound 8, 6-tert-Butyl-N-[2-fluoro-4-(2-oxo-2,3-dihydro-1H-imidazo[4,5-b]pyridin-7-yl)-benzyl]-nicotinamide], for which, in experiment [1], the IC50 was over 1000 nM.
`CC(C)(C)c1nc(C(=O)NCc2ccc(-c3ccnc4[nH]c(=O)[nH]c34)cc2F)cs1` [Compound 6, 2-tert-Butyl-thiazole-4-carboxylic Acid 2-fluoro-4-(2-oxo-2,3-dihydro-1H-imidazo[4,5-b]pyridin-7-yl)-benzylamide]: the IC50 in experiment [1] was 10 to 100 nM.
Take `CC(C)(C)c1noc(C(=O)NC2CCCc3cc(-c4ccnc5[nH]c(=O)[nH]c45)ccc32)n1` (centres unmarked) [Compound 15, 3-tert-Butyl-[1,2,4]oxadiazole-5-carboxylic Acid [6-(2-oxo-2,3-dihydro-1H-imidazo[4,5-b]pyridin-7-yl)-1,2,3,4-tetrahydro-naphthalen-1-yl]-amide]: in experiment [1], the IC50 was 10 to 100 nM.
On to `CC(C)(C)c1noc(C(=O)NCc2ccc(-c3ccnc4[nH]c(=O)[nH]c34)c(CO)c2)n1` [Compound 10, 3-tert-Butyl-[1,2,4]oxadiazole-5-carboxylic Acid 3-hydroxymethyl-4-(2-oxo-2,3-dihydro-1H-imidazo[4,5-b]pyridin-7-yl)-benzylamide], for which, in experiment [1], the IC50 was over 1000 nM.
As to `CC(C)(C)c1nc(C(=O)NCc2ccc(-c3ccnc4[nH]c(=O)[nH]c34)cc2F)no1` [Compound 3, 5-tert-Butyl-[1,2,4]oxadiazole-3-carboxylic Acid 2-fluoro-4-(2-oxo-2,3-dihydro-1H-imidazo[4,5-b]pyridin-7-yl)-benzylamide], the IC50 in experiment [1] was in the range of 10 to 100 nM.
As for `CC(C)(C)c1noc(C(=O)NC2CCCCc3cc(-c4ccnc5[nH]c(=O)[nH]c45)ccc32)n1` (single isomer, unassigned) [Compound 13, 3-tert-Butyl-[1,2,4]oxadiazole-5-carboxylic Acid [2-(2-oxo-2,3-dihydro-1H-imidazo[4,5-b]pyridin-7-yl)-6,7,8,9-tetrahydro-5H-benzocyclohepten-5-yl]-amide], in experiment [1], the concentration for half-maximal inhibition (IC50) was 10 to 100 nM.
In the case of `CC(C)(C)c1cc(C(=O)NC2CCCCc3cc(-c4ccnc5[nH]c(=O)[nH]c45)ccc32)on1` (centres unmarked) [Compound 14, Butyl-isoxazole-5-carboxylic Acid [2-(2-oxo-2,3-dihydro-1H-imidazo[4,5-b]pyridin-7-yl)-6,7,8,9-tetrahydro-5H-benzocyclohepten-5-yl]-amide], the IC50 in experiment [2] (Homo sapiens, PBMC) was in the range of 100 to 1000 nM.
Take `Cc1cc(-c2ccnc3[nH]c(=O)[nH]c23)c(F)cc1CNC(=O)c1nc(C(C)(C)C)no1` [Compound 16, 3-tert-Butyl-[1,2,4]oxadiazole-5-carboxylic Acid 5-fluoro-2-methyl-4-(2-oxo-2,3-dihydro-1H-imidazo[4,5-b]pyridin-7-yl)-benzylamide]: the IC50 is 100 to 1000 nM in experiment [2] (Homo sapiens, PBMC) and under 10 nM in experiment [1].
On to `CC1(C)Cc2cc3n(c2C1)CCN(c1cc(F)cc(-c2ccnc4[nH]c(=O)[nH]c24)c1CO)C3=O` [Compound 21, 2-[5-Fluoro-2-hydroxymethyl-3-(2-oxo-2,3-dihydro-1H-imidazo[4,5-b]pyridin-7-yl)-phenyl]-7,7-dimethyl-3,4,7,8-tetrahydro-2H,6H-cyclopenta[4,5]pyrrolo[1,2-a]pyrazin-1-one], for which, in experiment [1], the IC50 was under 10 nM.
With `CC1(C)Cc2cc3n(c2C1)CCN(c1cc(F)cc(-c2ccnc4[nH]c(=O)[nH]c24)c1)C3=O` [Compound 22, 2-[3-Fluoro-5-(2-oxo-2,3-dihydro-1H-imidazo[4,5-b]pyridin-7-yl)-phenyl]-7,7-dimethyl-3,4,7,8-tetrahydro-2H,6H-cyclopenta[4,5]pyrrolo[1,2-a]pyrazin-1-one], the IC50 in experiment [1] was 10 to 100 nM.
`CC(C)(C)c1noc(C(=O)NCc2ccc(-c3ccnc4[nH]c(=O)[nH]c34)cc2C(F)(F)F)n1` [Compound 1, 3-tert-Butyl-[1,2,4]oxadiazole-5-carboxylic Acid 4-(2-oxo-2,3-dihydro-1H-imidazo[4,5-b]pyridine-7-yl)-2-trifluoromethyl-benzylamide]: the IC50 was 100 to 1000 nM in experiment [2] (Homo sapiens, PBMC); 100 to 1000 nM in experiment [3]; under 10 nM in experiment [1].
Consider `CC(C)(C)C1CCN(C(=O)NCc2ccc(-c3ccnc4[nH]c(=O)[nH]c34)cc2F)C1` (centres unmarked) [Compound 5, 3-tert-Butyl-pyrrolidine-1-carboxylic Acid 2-fluoro-4-(2-oxo-2,3-dihydro-1H-imidazo[4,5-b]pyridin-7-yl)-benzylamide], for which the IC50 in experiment [1] lay within 10 to 100 nM.
